Experiments:
Assay type in all cases: in vivo
Design in all cases: key: 5: completely killed; 4: seriously injured; 3: considerably injured; 2: somewhat injured; 1: slightly injured; 0: not injured (normally grown)
paddy rice = assay: Experiment 4 flooded soil treatment: injury to paddy rice; conditions: 4 weeks after treatment
Excerpt: (§1) Paddy soil (clay loam) was put into a pot so as to have a surface area of 1/15500 ares. Uniformly mixed seeds of several kinds of weeds, viz., nobie (barnyardgrass, Echinochloa spp.), broad-leaved weeds, hotarui (bulrush, Scirpus juncoides) and tamagayatsuri (small-flowered umbrellaplant, Cyperus difformis), were sown in the surface layer of the soil in each pot, and then paddy rice seedlings at the two- or three-leaved stage were transplanted into each pot to a depth of 2 cm, and water was fed into each pot so as to provide a 3 cm deep water layer on the soil surface. After 3 days, in other words at the initial stage of germination of nobie (barnyardgrass, Echinochloa spp.), a predetermined amount of a selected compound obtained in a manner analogous to Example 11 in the form of diluted aqueous solution was dropped into the water layer in each pot. After that, the pots were kept in a glass chamber to allow the paddy rice and the weeds to grow, and after the lapse of 4 weeks from the treatment with the selected compounds, the herbicidal effects and the degree of injury to the paddy rice were evaluated. The evaluation of the herbicidal effects was similarly conducted as to that of Experiment 1.

[1] = test system: nobie (barnyardgrass, Echinochloa spp.); assay: Experiment 4 flooded soil treatment: nobie; conditions: 4 weeks after treatment
Excerpt: as §1

broad-leaved weeds = assay: Experiment 4 flooded soil treatment: broad-leaved weeds; conditions: 4 weeks after treatment
Excerpt: as §1

[2] = test system: hotarui (bulrush, Scirpus juncoides); assay: Experiment 4 flooded soil treatment: hotarui; conditions: 4 weeks after treatment
Excerpt: as §1

[3] = test system: tamagayatsuri (small-flowered umbrellaplant, Cyperus difformis); assay: Experiment 4 flooded soil treatment: tamagayatsuri; conditions: 4 weeks after treatment
Excerpt: as §1

rice = assay: Experiment 5 foliage treatment: rice; conditions: foliage spray of wettable powder suspension, evaluated 4 weeks after treatment
Description: (§2) Upon seedling stage (two- or three-leaved stage) of rice, cockspur (Panicum crus-galli), garden radish, aobiyu (slender amaranth, Amaranthus viridis) and mehishiba (henry crabgrass, Digitaria cliaris) which were grown on a cultivated soil put in pots of 1/15500 ares, a selected compound obtained in a manner analogous to Example 11, in suspended wettable powder, was sprayed to each plant. After that, the pots were kept in a glass chamber to allow each plant to grow, and after the lapse of 4 weeks from the treatment with the selected compounds the herbicidal effects were evaluated. The evaluation of the herbicidal effects was similarly conducted as that of Experiment 1.

[4] = test system: cockspur (Panicum crus-galli); assay: Experiment 5 foliage treatment: cockspur; conditions: foliage spray of wettable powder suspension, evaluated 4 weeks after treatment
Description: as §2

garden radish = assay: Experiment 5 foliage treatment: garden radish; conditions: foliage spray of wettable powder suspension, evaluated 4 weeks after treatment
Description: as §2

[5] = test system: aobiyu (slender amaranth, Amaranthus viridis); assay: Experiment 5 foliage treatment: aobiyu; conditions: foliage spray of wettable powder suspension, evaluated 4 weeks after treatment
Description: as §2

[6] = test system: mehishiba (henry crabgrass, Digitaria cliaris); assay: Experiment 5 foliage treatment: mehishiba; conditions: foliage spray of wettable powder suspension, evaluated 4 weeks after treatment
Description: as §2

Row | Structure (SMILES) | Injury of Paddy (paddy rice; 3.13 g/10a) | Injury of Paddy (paddy rice; 6.25 g/10a) | Herbicidal Effect nobie ([1]; 3.13 g/10a) | Herbicidal Effect nobie ([1]; 6.25 g/10a) | Herbicidal Effect broad-leaved weed (broad-leaved weeds; 3.13 g/10a) | Herbicidal Effect broad-leaved weed (broad-leaved weeds; 6.25 g/10a) | Herbicidal Effect hotarui ([2]; 3.13 g/10a) | Herbicidal Effect hotarui ([2]; 6.25 g/10a) | Herbicidal Effect tamagayatsuri ([3]; 3.13 g/10a) | Herbicidal Effect tamagayatsuri ([3]; 6.25 g/10a) | Herbicidal Effect rice (rice; 40 g/10a) | Herbicidal Effect rice (rice; 80 g/10a) | Herbicidal Effect cockspur ([4]; 40 g/10a) | Herbicidal Effect cockspur ([4]; 80 g/10a) | Herbicidal Effect garden radish (garden radish; 40 g/10a) | Herbicidal Effect garden radish (garden radish; 80 g/10a) | Herbicidal Effect aobiyu ([5]; 40 g/10a) | Herbicidal Effect aobiyu ([5]; 80 g/10a) | Herbicidal Effect mehishiba ([6]; 40 g/10a) | Herbicidal Effect mehishiba ([6]; 80 g/10a)
1 | C#CC(C)Oc1cc(N(C(=O)C2=C(C(=O)OCCOC)CCCC2)C(=O)c2ccc(Cl)nc2)c(F)cc1Cl (stereo not drawn) [compound 69] | 0.5 | 0.5 | 5 | 5 | 5 | 5 | 4 | 4.5 | 5 | 5 | 1 | 1 | 1 | 1 | 4.5 | 5 | 5 | 5 | 2 | 2
2 | COC(=O)CSc1cc(N(C(=O)C2=C(C(=O)OC)CCCC2)C(=O)c2cccnc2)c(F)cc1Cl [compound 63] | 0 | 0 | 5 | 5 | 5 | 5 | 4 | 4 | 4 | 5 | 1 | 1 | 1 | 1 | 4.5 | 4.5 | 5 | 5 | 1 | 1
3 | C#CC(C)Oc1cc(N(C(=O)C2=C(C(=O)OC)CCCC2)C(=O)c2cccnc2)c(Cl)cc1Cl (stereo not drawn) [compound 70] | 0 | 0 | 5 | 5 | 5 | 5 | 4 | 4 | 5 | 5 | 1 | 1 | 1 | 1 | 4 | 5 | 5 | 5 | 2 | 2
4 | C#CC(C)Oc1cc(N(C(=O)C2=C(C(=O)OC3CCCC3)CCCC2)C(=O)c2cccnc2)c(F)cc1Cl (stereo not drawn) [compound 62] | 0 | 0.5 | 5 | 5 | 5 | 5 | 4 | 4 | 5 | 5 | 1 | 1 | 1 | 1 | 4.5 | 5 | 5 | 5 | 1 | 1
5 | COC(=O)C1=C(C(=O)N(C(=O)c2cccnc2)c2cc(OC(C)C)c(Cl)cc2F)CCCC1 [compound 56] | 0.5 | 0.5 | 5 | 5 | 4.5 | 5 | 5 | 5 | 5 | 5 | 1 | 1 | 1 | 1 | 5 | 5 | 5 | 5 | 1 | 1
6 | C#CC(C)Oc1cc(N(C(=O)C2=C(C(=O)OC(C)C)CCCC2)C(=O)c2ccc(Cl)nc2)c(F)cc1Cl (stereo not drawn) [compound 68] | 0 | 0.5 | 5 | 5 | 5 | 5 | 4 | 4.5 | 5 | 5 | 1 | 1 | 1 | 1 | 5 | 5 | 5 | 5 | 1 | 1
7 | CCCCOC(=O)c1cc(N(C(=O)C2=C(C(=O)OC)CCCC2)C(=O)c2cccnc2)c(F)cc1Cl [compound 66] | 0 | 0 | 5 | 5 | 5 | 5 | 4 | 4 | 4 | 4 | 1 | 1 | 1 | 1 | 4.5 | 5 | 5 | 5 | 1 | 2
8 | C#CC(C)Oc1cc(N(C(=O)C2=C(C(=O)OCCC)CCCC2)C(=O)c2cccnc2)c(F)cc1Cl (stereo not drawn) [Compound No. 58] | 0 | 0.5 | 5 | 5 | 5 | 5 | 4 | 4.5 | 5 | 5 | 1 | 1 | 1 | 1 | 5 | 5 | 5 | 5 | 1 | 3
9 | C#CCOC(=O)C1=C(C(=O)N(C(=O)c2cccnc2)c2cc(OC(C)C#C)c(Cl)cc2F)CCCC1 (stereo not drawn) [compound 61] | 0 | 0.5 | 5 | 5 | 5 | 5 | 4 | 4 | 5 | 5 | 3 | 4 | 2 | 2 | 5 | 5 | 5 | 5 | 4.5 | 5
